Assay [1] concerns cancer cell lines / MV-4-11 Myc reporter cell line. As to the kind of experiment: Bromodomain cell assays of Example 8 (at least one of them). Type of assay: cell-based. The following applies: Homo sapiens, MV4-11; at least one of the bromodomain cell assays described in Example 8. The method in brief: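 Antiproliferation: 3000 cells/well, 8-point 1:3 titration from 10 µM final, 0.2% DMSO, 72 h, CellTiter Glo luminescence. Myc reporter: MV-4-11 with E-box firefly luciferase, 25,000 cells, same titration, 24 h; One-Glo luminescence with CellTiter-Fluo viability; 10 µM JQ1 as low control. pIC50 from four-parameter fit.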

Assay [2] relates to MV-4-11. The assay can be described thus: Oncology cell growth assay, MV-4-11 3 d growth. In kind it is cell-based. The following applies: Homo sapiens, MV4-11; MV-4-11 cells, 72 hours, CellTiter Glo; read-out: Cell activity (IC50 μM) MV-4-11 3 d-Growtb. The method in brief: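 MV-4-11 AML cells (MLL-AF4) seeded 3000/well, then exposed to 8-point 1:3 compound dilutions up to 10 μM final, 0.2% DMSO, for 72 h. Growth read by CellTiter Glo luminescence, normalised to DMSO controls; pIC50 from four-parameter fit.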
A general note: In ATP-based viability assays light output follows the ATP content of the culture.

Assay [3] addresses T1, BRD4-BD12 (Homo sapiens, UniProt O60885).
T1 construct: dual bromodomains (BRD4-BD12 (1-477), BRD4-BD12 (1-472)); six-His tag (N); made in house; host or cells: E. coli BL21-CodonPlus (DE3)
The assay can be described thus: Alphascreen binding assay, BRD4(1 2) H4. As to conditions: BRD4 dual bromodomains with acetylated Histone 4 peptide, read-out: Biochemical activity (IC50 μM) BRD4(1 2) H4. A digest of the protocol:
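N-His-tagged human BRD4 tandem bromodomains (1-477 or 1-472, E. coli-expressed) and biotinylated tetra-acetylated histone H4 1-21 peptide, preincubated 1 h at room temperature with compound in HEPES pH 7.5/NaCl/BSA/Triton/DTT. AlphaScreen nickel-chelate/streptavidin beads added (7.5 μg/mL), read after 30 min. pIC50 from four-parameter fit of control-normalized data.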
For orientation: In Alpha technology, singlet oxygen from a donor bead excites a nearby acceptor bead.

The subject of assay [4] is cancer cells such leukemia and lymphoma, multiple myeloma cells, NUT midline carcinoma and glioblastoma cells. As to conditions: literature; cited from earlier work.
The subject of assay [5] is MYC promoter / c-myc transcription in MV-4-11 cells. The following applies: literature (Dawson M A et al. 2011); cited from earlier work.

Broadly, the IC50 is the concentration that gives 50% inhibition. On to `Cc1noc(C)c1-c1cnc2cnn(CC3CCC(F)(F)CC3)c2c1` [Compound P-2079, 4-[1-[(4,4-difluorocyclohexyl)methyl]pyrazolo[4,3-b]pyridin-6-yl]-3,5-dimethyl-isoxazole], for which the IC50 in assay [1] is below 10000 nM; in assay [2], at most 1 µM; in assay [3], at most 1 µM.
As to `Cc1noc(C)c1-c1cnc2c(I)nn(CC3CCC(F)(F)CC3)c2c1` [Compound P-2080, 4-[1-[(4,4-difluorocyclohexyl)methyl]-3-iodo-pyrazolo[4,3-b]pyridin-6-yl]-3,5-dimethyl-isoxazole], the concentration for half-maximal inhibition (IC50) was below 10000 nM in assay [1], at most 1 µM in assay [2] and at most 1 µM in assay [3].
Regarding `Cc1noc(C)c1-c1cnc2c(-c3cnn(C)c3)nn(CC3CCC(F)(F)CC3)c2c1` [Compound P-2081, 4-[1-[(4,4-difluorocyclohexyl)methyl]-3-(1-methylpyrazol-4-yl)pyrazolo[4,3-b]pyridin-6-yl]-3,5-dimethyl-isoxazole], the 50% inhibitory concentration (IC50) was below 10000 nM in assay [1], at most 1 µM in assay [2] and at most 1 µM in assay [3].
Take `Cc1noc(C)c1-c1cnc2c(-c3cnn(C(F)F)c3)nn(CC3CCC(F)(F)CC3)c2c1` [Compound P-2082, 4-[1-[(4,4-difluorocyclohexyl)methyl]-3-[1-(difluoromethyl)pyrazol-4-yl]pyrazolo[4,3-b]pyridin-6-yl]-3,5-dimethyl-isoxazole]: the concentration for half-maximal inhibition (IC50) is below 10000 nM in assay [1], at most 1 µM in assay [2] and at most 1 µM in assay [3].
Take `Cc1noc(C)c1-c1cnc2c(-c3cnn(CC(F)(F)F)c3)nn(CC3CCC(F)(F)CC3)c2c1` [Compound P-2083, 4-[1-[(4,4-difluorocyclohexyl)methyl]-3-[1-(2,2,2-trifluoroethyl)pyrazol-4-yl]pyrazolo[4,3-b]pyridin-6-yl]-3,5-dimethyl-isoxazole]: the values for the IC50 in assay [1], in assay [2] and in assay [3] were below 10000 nM, at most 1 µM and at most 1 µM, respectively.
For the compound `[2H]C([2H])(C1CCC(F)(F)CC1)n1nc(-c2cnn(C(F)F)c2)c2ncc(-c3c(C)noc3C)cc21` [Compound P-2084, 4-[1-[dideuterio-(4,4-difluorocyclohexyl)methyl]-3-[1-(difluoromethyl)pyrazol-4-yl]pyrazolo[4,3-b]pyridin-6-yl]-3,5-dimethyl-isoxazole], the IC50 in assay [1] was below 10000 nM; in assay [2], at most 1 µM; in assay [3], at most 1 µM.
`[2H]C([2H])(C1CCC(F)(F)CC1)n1nc(-c2cnn(CC(F)(F)F)c2)c2ncc(-c3c(C)noc3C)cc21` [Compound P-2085, 4-[1-[dideuterio-(4,4-difluorocyclohexyl)methyl]-3-[1-(2,2,2-trifluoroethyl)pyrazol-4-yl]pyrazolo[4,3-b]pyridin-6-yl]-3,5-dimethyl-isoxazole]: the concentration for half-maximal inhibition (IC50) was below 10000 nM in assay [1], at most 1 µM in assay [2] and at most 1 µM in assay [3].
Consider `Cc1noc(C)c1-c1cnc2c(-c3cnn(C)c3)nn(CC3CC(F)(F)C3)c2c1` [Compound P-2086, 4-[1-[(3,3-difluorocyclobutyl)methyl]-3-(1-methylpyrazol-4-yl)pyrazolo[4,3-b]pyridin-6-yl]-3,5-dimethyl-isoxazole], for which the IC50 in assay [1] is below 10000 nM; in assay [2] it was at most 1 µM; in assay [3], at most 1 µM.
`Cc1noc(C)c1-c1cnc2c(-c3cnn(CC(F)(F)F)c3)nn(CC3CC(F)(F)C3)c2c1` [Compound P-2087, 4-[1-[(3,3-difluorocyclobutyl)methyl]-3-[1-(2,2,2-trifluoroethyl)pyrazol-4-yl]pyrazolo[4,3-b]pyridin-6-yl]-3,5-dimethyl-isoxazole]: the IC50 in assay [1] is below 10000 nM; in assay [2], at most 1 µM; in assay [3], at most 1 µM.
In the case of `Cc1noc(C)c1-c1cnc2c(-c3cnn(C(F)F)c3)nn(CC3(F)CCCCC3)c2c1` [Compound P-2088, 4-[3-[1-(difluoromethyl)pyrazol-4-yl]-1-[(1-fluorocyclohexyl)methyl]pyrazolo[4,3-b]pyridin-6-yl]-3,5-dimethyl-isoxazole], the 50% inhibitory concentration (IC50) in assay [1] was below 10000 nM; in assay [2], at most 1 µM; in assay [3] it was at most 1 µM.
Consider `Cc1noc(C)c1-c1cnc2c(-c3cnn(CC(F)(F)F)c3)nn(CC3(F)CCCCC3)c2c1` [Compound P-2089, 4-[1-[(1-fluorocyclohexyl)methyl]-3-[1-(2,2,2-trifluoroethyl)pyrazol-4-yl]pyrazolo[4,3-b]pyridin-6-yl]-3,5-dimethyl-isoxazole], for which the IC50 in assay [1] is below 10000 nM; in assay [2] it was at most 1 µM; in assay [3], at most 1 µM.
As to `Cc1nnn(C)c1-c1cnc2c(-c3cnn(C)c3)nn(CC3CCC(F)(F)CC3)c2c1` [Compound P-2090, 1-[(4,4-difluorocyclohexyl)methyl]-6-(3,5-dimethyltriazol-4-yl)-3-(1-methylpyrazol-4-yl)pyrazolo[4,3-b]pyridine], the IC50 was below 10000 nM in assay [1], at most 1 µM in assay [2] and at most 1 µM in assay [3].
On to `Cc1noc(C)c1-c1cnc2ncn(C(c3ccccc3)c3ccccn3)c2c1` (stereo not shown) [Compound P-2103, 3,5-dimethyl-4-[1-[phenyl(2-pyridyl)methyl]imidazo[4,5-b]pyridin-6-yl]isoxazole], for which the concentration for half-maximal inhibition (IC50) in assay [1] was below 10000 nM; in assay [2] it was at most 1 µM; in assay [3], at most 1 µM.
Take `Cc1noc(C)c1-c1cnc2c(c1)ncn2C(c1ccccc1)c1ccccn1` (stereo not shown) [Compound P-2104, 3,5-dimethyl-4-[3-[phenyl(2-pyridyl)methyl]imidazo[4,5-b]pyridin-6-yl]isoxazole]: the IC50 in assay [1] was below 10000 nM; in assay [2], 10 to 200 µM; in assay [3], 1 to 10 µM.
Regarding `Cc1sc2c(c1C)C(c1ccc(Cl)cc1)=N[C@@H](CC(=O)OC(C)(C)C)c1nnc(C)n1-2` [JQ1], the “activity in variety of cancer cells” value in assay [4] is recorded as “have shown activity”.
In the case of `COc1cc2c(cc1-c1c(C)noc1C)ncc1[nH]c(=O)n([C@H](C)c3ccccn3)c12` [iBET 151], in assay [5], the “BRD4 recruitment to the MYC promoter” value is on record as “disrupt” and the c-myc transcription result is “downregulate”. In assay [4], the “activity in variety of cancer cells” value is listed as “have shown activity”.

These data come from patent US9856259B2, “Heterocyclic compounds and uses thereof” (Plexxikon Inc., priority 2014, dated 2018).
